Experimental data as given in patent publication US10954252B1, “Inhibitors of human immunodeficiency virus replication” (ViiV HEALTHCARE UK (NO.5) LIMITED, priority 2017, dated 2021).

How the values were obtained:
[1] = test system: recombinant NL4-3 virus (nef section replaced with Renilla luciferase gene) in MT-2 cells; assay: HIV cell culture assay (antiviral activity, luciferase readout); assay type: cell-based; settings: Renilla, NL43, Table 1; MT-2 cells infected for 4-5 days with recombinant NL4-3 luciferase virus
In short: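 NL4-3 reporter virus carrying Renilla luciferase in place of part of nef, produced in 293T cells, was used to infect MT-2 cells for 4-5 days with serial compound dilutions. Luciferase activity was read with a live-cell substrate; EC50 derived from the median effect equation.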

[2] = Compound cytotoxicity, XTT-based colorimetric assay; assay type: cell-based; settings: human, uninfected MT2 cells, Table 1, day 4, XTT
In short: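 CC50 from uninfected MT2 cells run under the antiviral-assay protocol without virus. Viability read on day 4 by XTT colorimetric assay.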

**Q.** Which results are given for COC(=O)c1cccc(-c2cc3[nH]ncc3nc2[C@H](Cc2cc(F)cc(F)c2)NC(=O)Cn2nc(C(F)F)c3c2C(F)(F)[C@@H]2C[C@H]32)c1 [Example 10.8, Methyl 3-(5-((S)-1-(2-((3bS,4aR)-3-(difluoromethyl)-5,5-difluoro-3b,4,4a,5-tetrahydro-1H-cyclopropa[3,4]cyclopenta[1,2-c]pyrazol-1-yl)acetamido)-2-(3,5-difluorophenyl)ethyl)-1H-pyrazolo[4,3-b]pyridin-6-yl)benzoate]?
**A.** EC50 [1]: 1200 nM; CC50 at 4 days [2]: > 10000 nM

**Q.** Which results are given for COC(=O)c1cc(-c2cc3[nH]ncc3nc2[C@H](Cc2cc(F)cc(F)c2)NC(=O)Cn2nc(C(F)F)c3c2C(F)(F)[C@@H]2C[C@H]32)ccc1Cl [Example 10.9, Methyl 2-chloro-5-(5-((S)-1-(2-((3bS,4aR)-3-(difluoromethyl)-5,5-difluoro-3b,4,4a,5-tetrahydro-1H-cyclopropa[3,4]cyclopenta[1,2-c]pyrazol-1-yl)acetamido)-2-(3,5-difluorophenyl)ethyl)-1H-pyrazolo[4,3-b]pyridin-6-yl)benzoate]?
**A.** EC50 [1]: 1080 nM; CC50 at 4 days [2]: 8950 nM

**Q.** With O=C(Cn1nc(C(F)F)c2c1C(F)(F)[C@@H]1C[C@H]21)N[C@@H](Cc1cc(F)cc(F)c1)c1nc2cn[nH]c2cc1-c1cccc(C(=O)O)c1 [Example 10.10, 3-(5-((S)-1-(2-((3bS,4aR)-3-(difluoromethyl)-5,5-difluoro-3b,4,4a,5-tetrahydro-1H-cyclopropa[3,4]cyclopenta[1,2-c]pyrazol-1-yl)acetamido)-2-(3,5-difluorophenyl)ethyl)-1H-pyrazolo[4,3-b]pyridin-6-yl)benzoic acid] as the compound, how does the EC50 [1] read?
**A.** Its EC50 is 140 nM.

**Q.** And the CC50 at 4 days [2]?
**A.** The CC50 at 4 days was over 10000 nM.

**Q.** Which EC50 [1] does the source give for O=C(Cn1nc(C(F)F)c2c1C(F)(F)[C@@H]1C[C@H]21)N[C@@H](Cc1cc(F)cc(F)c1)c1nc2cn[nH]c2cc1-c1ccc(Cl)c(C(=O)O)c1 [Example 10.11, 2-Chloro-5-(5-((S)-1-(2-((3bS,4aR)-3-(difluoromethyl)-5,5-difluoro-3b,4,4a,5-tetrahydro-1H-cyclopropa[3,4]cyclopenta[1,2-c]pyrazol-1-yl)acetamido)-2-(3,5-difluorophenyl)ethyl)-1H-pyrazolo[4,3-b]pyridin-6-yl)benzoic acid] here?
**A.** The EC50 was 810 nM.

**Q.** And the CC50 at 4 days [2]?
**A.** Its CC50 at 4 days is over 10000 nM.

**Q.** For O=C(Cn1nc(C(F)F)c2c1C(F)(F)[C@@H]1C[C@H]21)N[C@@H](Cc1cc(F)cc(F)c1)c1nc2cn[nH]c2cc1-c1ccc2c(c1)CNC2=O [Example 10.12, 2-((3bS,4aR)-3-(difluoromethyl)-5,5-difluoro-3b,4,4a,5-tetrahydro-1H-cyclopropa[3,4]cyclopenta[1,2-c]pyrazol-1-yl)-N—((S)-2-(3,5-difluorophenyl)-1-(6-(1-oxoisoindolin-5-yl)-1H-pyrazolo[4,3-b]pyridin-5-yl)ethyl)acetamide], which EC50 [1] is on record?
**A.** Its EC50 is 95 nM.

**Q.** And the CC50 at 4 days [2]?
**A.** The CC50 at 4 days was over 10000 nM.

**Q.** For O=C(Cn1nc(C(F)F)c2c1C(F)(F)[C@@H]1C[C@H]21)N[C@@H](Cc1cc(F)cc(F)c1)c1nc2cn[nH]c2cc1-c1cccc2c1CNC2=O [Example 10.13, 2-((3bS,4aR)-3-(difluoromethyl)-5,5-difluoro-3b,4,4a,5-tetrahydro-1H-cyclopropa[3,4]cyclopenta[1,2-c]pyrazol-1-yl)-N—((S)-2-(3,5-difluorophenyl)-1-(6-(1-oxoisoindolin-4-yl)-1H-pyrazolo[4,3-b]pyridin-5-yl)ethyl)acetamide], which EC50 [1] is on record?
**A.** Its EC50 is 12 nM.

**Q.** What about the CC50 at 4 days [2] of the same compound?
**A.** Its CC50 at 4 days is over 10000 nM.

**Q.** For O=C(Cn1nc(C(F)F)c2c1C(F)(F)[C@@H]1C[C@H]21)N[C@@H](Cc1cc(F)cc(F)c1)c1nc2cn[nH]c2cc1-c1ccc2c(c1)C(=O)NC2 [Example 10.14, 2-((3bS,4aR)-3-(difluoromethyl)-5,5-difluoro-3b,4,4a,5-tetrahydro-1H-cyclopropa[3,4]cyclopenta[1,2-c]pyrazol-1-yl)-N—((S)-2-(3,5-difluorophenyl)-1-(6-(3-oxoisoindolin-5-yl)-1H-pyrazolo[4,3-b]pyridin-5-yl)ethyl)acetamide], which EC50 [1] is on record?
**A.** The EC50 was 2.5 nM.

**Q.** What about the CC50 at 4 days [2] of the same compound?
**A.** The CC50 at 4 days was over 10000 nM.

**Q.** Which EC50 [1] does the source give for N#Cc1cc(-c2cc3[nH]ncc3nc2[C@H](Cc2cc(F)cc(F)c2)NC(=O)Cn2nc(C(F)F)c3c2C(F)(F)[C@@H]2C[C@H]32)ccc1Cl [Example 10.15, N—((S)-1-(6-(4-chloro-3-cyanophenyl)-1H-pyrazolo[4,3-b]pyridin-5-yl)-2-(3,5-difluorophenyl)ethyl)-2-((3bS,4aR)-3-(difluoromethyl)-5,5-difluoro-3b,4,4a,5-tetrahydro-1H-cyclopropa[3,4]cyclopenta[1,2-c]pyrazol-1-yl)acetamide] here?
**A.** The EC50 was 1170 nM.

**Q.** And the CC50 at 4 days [2]?
**A.** The CC50 at 4 days was 5500 nM.

**Q.** For O=C(Cn1nc(C(F)F)c2c1C(F)(F)[C@@H]1C[C@H]21)N[C@@H](Cc1cc(F)cc(F)c1)c1nc2cn[nH]c2cc1-c1ccc(Cl)c(C(=O)NS(=O)(=O)C2CC2)c1 [Example 10.16, 2-Chloro-N-(cyclopropylsulfonyl)-5-(5-((S)-1-(2-((3bS,4aR)-3-(difluoromethyl)-5,5-difluoro-3b,4,4a,5-tetrahydro-1H-cyclopropa[3,4]cyclopenta[1,2-c]pyrazol-1-yl)acetamido)-2-(3,5-difluorophenyl)ethyl)-1H-pyrazolo[4,3-b]pyridin-6-yl)benzamide], which EC50 [1] is on record?
**A.** Its EC50 is 340 nM.

**Q.** And the CC50 at 4 days [2]?
**A.** Its CC50 at 4 days is over 10000 nM.

**Q.** Which results are given for Cn1nc(NS(C)(=O)=O)c2c(Cl)ccc(-c3cc4ccccc4nc3[C@H](Cc3cc(F)cc(F)c3)NC(=O)Cc3c[nH]c4ccc(O)cc34)c21 [Example 10.17]?
**A.** EC50 [1]: 2.4 nM; CC50 at 4 days [2]: > 10000 nM

**Q.** Which EC50 [1] does the source give for CS(=O)(=O)NC(=O)c1cc(-c2cc3[nH]ncc3nc2[C@H](Cc2cc(F)cc(F)c2)NC(=O)Cn2nc(C(F)F)c3c2C(F)(F)[C@@H]2C[C@H]32)ccc1Cl [Example 10.18, 2-Chloro-5-(5-((S)-1-(2-((3bS,4aR)-3-(difluoromethyl)-5,5-difluoro-3b,4,4a,5-tetrahydro-1H-cyclopropa[3,4]cyclopenta[1,2-c]pyrazol-1-yl)acetamido)-2-(3,5-difluorophenyl)ethyl)-1H-pyrazolo[4,3-b]pyridin-6-yl)-N-(methylsulfonyl)benzamide] here?
**A.** The EC50 was 670 nM.

**Q.** And the CC50 at 4 days [2]?
**A.** Its CC50 at 4 days is over 10000 nM.

**Q.** With CC(C)S(=O)(=O)NC(=O)c1cc(-c2cc3[nH]ncc3nc2[C@H](Cc2cc(F)cc(F)c2)NC(=O)Cn2nc(C(F)F)c3c2C(F)(F)[C@@H]2C[C@H]32)ccc1Cl [Example 10.19, 2-chloro-5-(5-((S)-1-(2-((3bS,4aR)-3-(difluoromethyl)-5,5-difluoro-3b,4,4a,5-tetrahydro-1H-cyclopropa[3,4]cyclopenta[1,2-c]pyrazol-1-yl)acetamido)-2-(3,5-difluorophenyl)ethyl)-1H-pyrazolo[4,3-b]pyridin-6-yl)-N-(isopropylsulfonyl)benzamide] as the compound, how does the EC50 [1] read?
**A.** Its EC50 is 220 nM.

**Q.** What about the CC50 at 4 days [2] of the same compound?
**A.** The CC50 at 4 days was over 10000 nM.

**Q.** With CC1(S(=O)(=O)NC(=O)c2cc(-c3cc4[nH]ncc4nc3[C@H](Cc3cc(F)cc(F)c3)NC(=O)Cn3nc(C(F)F)c4c3C(F)(F)[C@@H]3C[C@H]43)ccc2Cl)CC1 [Example 10.20, 2-Chloro-5-(5-((S)-1-(2-((3bS,4aR)-3-(difluoromethyl)-5,5-difluoro-3b,4,4a,5-tetrahydro-1H-cyclopropa[3,4]cyclopenta[1,2-c]pyrazol-1-yl)acetamido)-2-(3,5-difluorophenyl)ethyl)-1H-pyrazolo[4,3-b]pyridin-6-yl)-N-((1-methylcyclopropyl)sulfonyl)benzamide] as the compound, how does the EC50 [1] read?
**A.** Its EC50 is 290 nM.

**Q.** What about the CC50 at 4 days [2] of the same compound?
**A.** Its CC50 at 4 days is over 10000 nM.

**Q.** For O=C(Cn1nc(C(F)F)c2c1C(F)(F)[C@@H]1C[C@H]21)N[C@@H](Cc1cc(F)cc(F)c1)c1nc2cn[nH]c2cc1-c1ccc(Cl)c(C(=O)NS(=O)(=O)C2CCCC2)c1 [Example 10.21, 2-Chloro-N-(cyclopentylsulfonyl)-5-(5-((S)-1-(2-((3bS,4aR)-3-(difluoromethyl)-5,5-difluoro-3b,4,4a,5-tetrahydro-1H-cyclopropa[3,4]cyclopenta[1,2-c]pyrazol-1-yl)acetamido)-2-(3,5-difluorophenyl)ethyl)-1H-pyrazolo[4,3-b]pyridin-6-yl)benzamide], which EC50 [1] is on record?
**A.** Its EC50 is 240 nM.

**Q.** What about the CC50 at 4 days [2] of the same compound?
**A.** The CC50 at 4 days was over 10000 nM.

**Q.** With Cn1nc(NS(C)(=O)=O)c2c(Cl)ccc(-c3cc4[nH]ncc4nc3[C@H](Cc3cc(F)cc(F)c3)NC(=O)Cc3c[nH]c4ccc(O)cc34)c21 [Example 10.22] as the compound, how does the EC50 [1] read?
**A.** Its EC50 is 22 nM.

**Q.** What about the CC50 at 4 days [2] of the same compound?
**A.** Its CC50 at 4 days is over 10000 nM.

**Q.** With O=C(Cc1c[nH]c2ccc(O)cc12)N[C@@H](Cc1cc(F)cc(F)c1)c1nc2ncccc2c(=O)n1-c1ccc2scnc2c1 [Example 10.23] as the compound, how does the EC50 [1] read?
**A.** Its EC50 is 2.7 nM.

**Q.** What about the CC50 at 4 days [2] of the same compound?
**A.** The CC50 at 4 days was over 10000 nM.

**Q.** What does the source list for O=C(Cn1nc(C(F)F)c2c1C(F)(F)[C@@H]1C[C@H]21)N[C@@H](Cc1cc(F)cc(F)c1)c1nc2ncccc2c(=O)n1-c1ccc2scnc2c1 [Example 10.24]?
**A.** EC50 [1]: 1.7 nM; CC50 at 4 days [2]: > 10000 nM

**Q.** What does the source list for O=C(Cn1nc(C(F)F)c2c1C(F)(F)[C@@H]1C[C@H]21)N[C@@H](Cc1cc(F)cc(F)c1)c1nc2cn[nH]c2cc1-c1ccc(F)c(C(=O)O)c1 [Example 10.25, 5-(5-((S)-1-(2-((3bS,4aR)-3-(difluoromethyl)-5,5-difluoro-3b,4,4a,5-tetrahydro-1H-cyclopropa[3,4]cyclopenta[1,2-c]pyrazol-1-yl)acetamido)-2-(3,5-difluorophenyl)ethyl)-1H-pyrazolo[4,3-b]pyridin-6-yl)-2-fluorobenzoic acid]?
**A.** EC50 [1]: 580 nM; CC50 at 4 days [2]: > 10000 nM

**Q.** Which EC50 [1] does the source give for CS(=O)(=O)NC(=O)c1cc(-c2cc3[nH]ncc3nc2[C@H](Cc2cc(F)cc(F)c2)NC(=O)Cn2nc(C(F)F)c3c2C(F)(F)[C@@H]2C[C@H]32)ccc1F [Example 10.26, 5-(5-((S)-1-(2-((3bS,4aR)-3-(difluoromethyl)-5,5-difluoro-3b,4,4a,5-tetrahydro-1H-cyclopropa[3,4]cyclopenta[1,2-c]pyrazol-1-yl)acetamido)-2-(3,5-difluorophenyl)ethyl)-1H-pyrazolo[4,3-b]pyridin-6-yl)-2-fluoro-N-(methylsulfonyl)benzamide] here?
**A.** The EC50 was 930 nM.

**Q.** And the CC50 at 4 days [2]?
**A.** The CC50 at 4 days was over 10000 nM.
